Reference: patent US5846538A, “Immune reactivity to HER-2/neu protein for diagnosis and treatment of malignancies in which the her-2/neu oncogene is associated” (University of Washington, priority 1995, dated 1998)

How the values were obtained:
[1] = target: T1, HLA-A2.1 (Homo sapiens, UniProt P04439, D140Y/D185E/D98H/E176V/E277Q/G131W/G231S/I119V/I121R/I166T/I218V/L300P/L318F/N151K/N90K/P208A/P217A/Q86G/Q94H/R138H/R169H/T345S); assay: class I MHC molecule stabilization assay on T2 cells; type: cell-based; conditions: T2 cells incubated 18 hours with peptide, vs medium alone
T1 construct: T2 without exogenous peptide has low expression of HLA-A2 (30%-50%); endogenous in cells; host or cells: T2 (human T-B cell hybrid)

[2] = system: rat sera; assay: ELISA for peptide epitope analysis of sera of immunized rats; type: in vivo; conditions: sera from rats immunized with ECD peptides
Description: One group of rats was immunized with a mixture of extracellular domain (ECD) peptides and one group with a mixture of intracellular domain (ICD) peptides. The final group received adjuvant alone. Peptides were administered at a final concentration of 100 μg each in a total volume of 200 μl. The animals underwent 3 immunizations each 14-16 days apart with either CFA or IFA as adjuvant (Sigma ImmunoChemicals, St. Louis, Mo.). 16 days after the third immunization sera was obtained for assessment of immune response.
96 well Immulon 4 plates (Dynatech Laboratories) were incubated overnight at 4° C. with peptides at a concentration of 10 μg/well diluted in PBS alternating with rows of PBS/1%BSA. After incubation, all wells were blocked with PBS/1%BSA, 100 μl/well for 4 hours at room temperature. The plate was washed with PBS/0.5% Tween. After washing, the plate was incubated with rat sera at the following dilutions: 1:50 and 1:100. The sera was diluted in PBS/1%BSA/1% FBS/25 μg/ml mouse IgG/0.01% NaN3 and then serially into PBS/1%BSA. […] Color reaction was read at an optical density of 640 nm until the reading on the most reactive well reached 0.3 OD. The reaction was stopped with 1N HCl and the optical density was read at 450 nm. The OD of each serum dilution was calculated as the OD of the peptide coated wells minus the OD of the PBS/1%BSA coated wells. […]

[3] = system: PBL; assay: low frequency event screening assay for CD4+ T cell precursors in PBL of normal individuals; type: cell-based, human
[4] = system: peripheral blood mononuclear cells (PBMC); assay: standard proliferation assay of PBMC (3H-thymidine), CD4+ T cell response; type: cell-based, human
[5] = breast cancer patient A, HER-2/neu status Negative, tetanus toxoid 5 μg/ml, p185 5 μg/ml, peptides 50 μg/ml, 4 days
[6] = breast cancer patient B, HER-2/neu status Positive, tetanus toxoid 5 μg/ml, p185 5 μg/ml, peptides 50 μg/ml, 4 days
[7] = breast cancer patient C, HER-2/neu status Positive, tetanus toxoid 5 μg/ml, p185 5 μg/ml, peptides 50 μg/ml, 4 days
[8] = breast cancer patient D, HER-2/neu status Positive, tetanus toxoid 5 μg/ml, p185 5 μg/ml, peptides 50 μg/ml, 4 days

Question: For `CC(C)C[C@H](NC(=O)[C@H](CCC(N)=O)NC(=O)[C@@H](NC(=O)[C@@H](NC(=O)[C@H](CO)NC(=O)[C@@H](NC(=O)[C@H](CC(C)C)NC(=O)[C@@H](N)CS)[C@@H](C)O)[C@@H](C)O)C(C)C)C(=O)N[C@H](C(=O)O)C(C)C` [p789-797], which “% Increase of class I stabilization on T2” value [1] is on record?
Answer: Its value is 20%.

Question: For TQRCEKCSKPCARVCYGL [p328-345], which “antibody responses to individual peptides” value [2] is on record?
Answer: Its value is “substantial responses”.

Question: What does the source list for “p185: protein product of the HER-2/neu oncogene, partially purified whole protein from SKBR3 cell membranes”?
Answer: CD4+ T cell response in low frequency screening ([3]; one normal individual (FIG. 2)): Positive responses; individuals with a proliferative response ([3]; seven normal subjects (4 males, 3 females)): 57%; Stimulation Index (S.I.) [4, 5]: 13; Stimulation Index (S.I.) [4, 6]: < 2; Stimulation Index (S.I.) [4, 7]: 4; Stimulation Index (S.I.) [4, 8]: 4; Stimulation Index (S.I.) ([4]; normal individual 1): 2; Stimulation Index (S.I.) ([4]; normal individual 2): < 2; Stimulation Index (S.I.) ([4]; normal individual 3): < 2; Stimulation Index (S.I.) ([4]; normal individual 4): 2; Stimulation Index (S.I.) ([4]; normal individual 5): 2

Question: With `CC(C)C[C@H](NC(=O)[C@@H](N)Cc1c[nH]cn1)C(=O)N[C@@H](Cc1ccc(O)cc1)C(=O)N[C@@H](CCC(N)=O)C(=O)NCC(=O)N[C@@H](CS)C(=O)N[C@@H](CCC(N)=O)C(=O)N[C@H](C(=O)N[C@H](C(=O)O)C(C)C)C(C)C` [p48-56] as the molecule, how does the “% Increase of class I stabilization on T2” value [1] read?
Answer: Its value is 20%.

Question: With Tetanus Toxoid [reference compound] as the molecule, how does the “Stimulation Index (S.I.)” value [4, 5] read?
Answer: The value was 52.

Question: What about the “Stimulation Index (S.I.)” value [4, 6] of the same molecule?
Answer: The value was 36.

Question: What about the “Stimulation Index (S.I.)” value [4, 7] of the same molecule?
Answer: Its value is 7.

Question: And the “Stimulation Index (S.I.)” value [4, 8]?
Answer: The value was 10.

Question: And the “Stimulation Index (S.I.)” value ([4]; normal individual 1)?
Answer: The value was 6.

Question: And the “Stimulation Index (S.I.)” value ([4]; normal individual 2)?
Answer: Its value is 7.

Question: What about the “Stimulation Index (S.I.)” value ([4]; normal individual 3) of the same molecule?
Answer: Its value is 7.

Question: And the “Stimulation Index (S.I.)” value ([4]; normal individual 4)?
Answer: The value was 10.

Question: And the “Stimulation Index (S.I.)” value ([4]; normal individual 5)?
Answer: The value was 11.
